Holding throughout (type): cell-based
One assay deals with T1, hKv1.1 (Homo sapiens, UniProt Q09470).
T1 construct: host or cells: CHO cells, transient transfection (Lipofectamine 2000)
Kind of assay: Whole-cell patch-clamp of Kv1.1 currents in transiently transfected CHO cells. The method, then:
(§1) Macroscopic Kv1.1 and Kv1.2 currents were measured in transiently transfected CHO cells. For Kv1.3 current recording, human T lymphocytes were activated by Phytohemagglutinin A (PHA) to increase Kv1.3 channel expression, and micro-pipettes were filled with Ca^2+-free solution to prevent KCa3.1 channel activation. K^+ currents were evoked by applying 15-ms-long depolarization pulses to +50 mV from a holding potential of −120 mV except for Kv1.2, as it has highly variable activation kinetics; therefore, 15–500 ms-long pulses were applied to maximize the open probability of Kv1.2 channel. CboK peptide toxins were dissolved in a freshly prepared extracellular solution and applied to the whole-cell patch-clamped cells using a micro perfusion system at 200 μL/min flow rate.
(§2) CHO cells were transiently transfected by using Lipofectamine 2000 kit (Invitrogen, Carlsbad, CA, USA), as per the manufacturer’s protocol with vector pCMV6-AC-GFP (cat# RG211000 and RC222200; OriGene Technologies, Rockville, MD, USA) encoding hKv1.1 (hKCNA1 gene) or hKv1.2 (hKCNA2 gene) ion channels. Cells were grown under standard conditions in an incubator at 37 °C and 5% CO2 for 24 h. GFP-positive transfected cells were identified by utilizing a Nikon TMS fluorescence microscope (Nikon, Tokyo, Japan) using bandpass filters of 455–495 nm and 515–555 nm for excitation and emission, respectively.
(§3) The patch-clamp technique was used for measuring whole-cell currents in voltage-clamped mode using standard protocols. Electrophysiological recordings were acquired by using Multiclamp 700B amplifier connected to a personnel computer with an Axon Digidata1440 digitizer (Molecular Devices, Sunnyvale, CA, USA). Pipettes were pulled from GC150F-15 borosilicate capillaries (Harvard Apparatus, Kent, UK) having 3−5 MΩ tip resistance in the bath solution. All current recordings were carried out at room temperature (20−25 °C) and only those currents were recorded and subjected to analyses when the leak current at holding potential was <5% of peak current at the test potential. Current traces were lowpass-filtered by utilizing the built-in analog four-pole Bessel filters of the amplifiers and were sampled at 20 kHz which is at least twice the filter cut-off frequency. A gravity-driven perfusion system was used to perfuse the cells with control and test solutions and excess fluid was removed continuously through vacuum suction. The extracellular solution (bath solution) contained 145 mM NaCl, 5.5 mM glucose, 5 mM KCl, 2.5 mM CaCl2, 1 mM MgCl2, and 10 mM HEPES, having pH of 7.35 and an osmolarity between 302 and 308 mOsM/L. Toxins were dissolved in bath solution at different molar concentrations and supplemented with 0.1 mg/mL of bovine serum albumin BSA (Sigma-Aldrich, Budapest, Hungary). The intracellular solution (pipette filling) was comprised of 140 mM KF, 2 mM MgCl2, 1 mM CaCl2, 10 mM HEPES, and 11 mM EGTA, with a pH of 7.22 and an osmolarity of ~295 mOsM/L.
(§4) Generally, to evoke the Kv1.xcurrents, 15-ms-long depolarization pulses to +50 mV from a holding potential of −120 mV were applied, and the current traces were recorded after every 15 s. However, in the case of Kv1.2, due to its variable activation kinetics, the duration of the depolarization pulse was set between 15 and 500 ms to attain the saturated peak current.

In the next assay the target is T2, Kv1.3 (Homo sapiens, UniProt P22001).
T2 construct: endogenous in cells
The experiment in a line: Whole-cell patch-clamp of Kv1.3 currents in PHA-activated human T lymphocytes. The note with it: for Hill coefficient H, Kv1.3 block: Hill fit of isochronal RCF (4 ms). The method, then:
as §1
Isochronal RCF data points obtained this way (isochronal RCF = I4ms/I4ms,0 where I4ms,0 and I4ms are the currents at 4 ms time point in the absence and presence of CboK peptides, respectively) at different toxin concentrations were fitted with the Hill equation to obtain concentration–response curves as shown in Figure 6H.
Human peripheral venous blood was acquired from anonymous healthy volunteers from the blood bank. Blood samples were collected by having approval from the Ethical Committee of the Hungarian Medical Research Council (36255-6/2017/EKU). PBMCs were separated by Histopaque 1077 (Sigma-Aldrich, Budapest, Hungary) separation technique, and isolated cells, at the density of 5 × 10^5 cells, were cultured in RPMI 1640 media (Gibco, Grand Island, NY, USA) supplemented with 10% FBS (Sigma-Aldrich, Budapest, Hungary), 2 mM L-glutamine, […], and […] penicillin in a humidified incubator at 37 °C and 5% CO2 for 3–6 days. A measure of 2, 5, or 10 μg/mL of Phytohemagglutinin A (PHA) (Sigma-Aldrich, Budapest, Hungary) was added in cultured cells to activate the PBMCs and upregulate the Kv1.3 expression.
as §3, with “suction.” for “suction. The extracellular solution (bath solution) contained 145 mM NaCl, 5.5 mM glucose, 5 mM KCl, 2.5 mM CaCl2, 1 mM MgCl2, and 10 mM HEPES, having pH of 7.35 and an osmolarity between 302 and 308 mOsM/L. Toxins were dissolved in bath solution at different molar concentrations and supplemented with 0.1 mg/mL of bovine serum albumin BSA (Sigma-Aldrich, Budapest, Hungary). The intracellular solution (pipette filling) was comprised of 140 mM KF, 2 mM MgCl2, 1 mM CaCl2, 10 mM HEPES, and 11 mM EGTA, with a pH of 7.22 and an osmolarity of ~295 mOsM/L.”
Background: Patch clamp records ionic current or voltage across a cell membrane.

A further assay deals with T3, hKv1.2 (Homo sapiens, UniProt P16389).
T3 construct: GFP (C); host or cells: CHO cells, transient transfection (Lipofectamine 2000)
The experiment in a line: Whole-cell patch-clamp of Kv1.2 currents in transiently transfected CHO cells. The method, then: as §1, §2, §3, §4

The mark [1] stands for this setting: Hill fit of RCF vs toxin concentration, n ≥ 3.

These results are taken from article PMC10467108, “Of Seven New K^+ Channel Inhibitor Peptides of Centruroides bonito, α-KTx 2.24 Has a Picomolar Affinity for Kv1.2” (Toxins, 2023).

“Also recorded” adds a separate entry of the source. Read-outs that look alike come from different tables or passages of the source. Where a SMILES comes first, the peptide text is derived from it. Bridges are numbered along the chain shown (N, C = ends).

T3 sequence (P16389 whole entry): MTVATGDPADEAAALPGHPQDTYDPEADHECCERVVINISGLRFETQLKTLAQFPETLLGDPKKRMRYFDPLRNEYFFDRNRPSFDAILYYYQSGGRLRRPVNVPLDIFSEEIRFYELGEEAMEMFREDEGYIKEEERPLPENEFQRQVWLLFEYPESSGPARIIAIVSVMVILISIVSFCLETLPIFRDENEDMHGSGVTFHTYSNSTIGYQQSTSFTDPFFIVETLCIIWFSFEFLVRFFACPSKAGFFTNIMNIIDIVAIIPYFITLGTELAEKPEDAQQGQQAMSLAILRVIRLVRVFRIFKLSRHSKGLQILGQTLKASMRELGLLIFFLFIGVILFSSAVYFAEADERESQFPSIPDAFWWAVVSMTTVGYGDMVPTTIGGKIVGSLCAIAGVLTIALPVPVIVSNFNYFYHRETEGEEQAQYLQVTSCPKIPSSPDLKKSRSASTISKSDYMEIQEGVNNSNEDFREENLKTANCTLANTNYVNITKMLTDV
T1 sequence (Q09470 whole entry): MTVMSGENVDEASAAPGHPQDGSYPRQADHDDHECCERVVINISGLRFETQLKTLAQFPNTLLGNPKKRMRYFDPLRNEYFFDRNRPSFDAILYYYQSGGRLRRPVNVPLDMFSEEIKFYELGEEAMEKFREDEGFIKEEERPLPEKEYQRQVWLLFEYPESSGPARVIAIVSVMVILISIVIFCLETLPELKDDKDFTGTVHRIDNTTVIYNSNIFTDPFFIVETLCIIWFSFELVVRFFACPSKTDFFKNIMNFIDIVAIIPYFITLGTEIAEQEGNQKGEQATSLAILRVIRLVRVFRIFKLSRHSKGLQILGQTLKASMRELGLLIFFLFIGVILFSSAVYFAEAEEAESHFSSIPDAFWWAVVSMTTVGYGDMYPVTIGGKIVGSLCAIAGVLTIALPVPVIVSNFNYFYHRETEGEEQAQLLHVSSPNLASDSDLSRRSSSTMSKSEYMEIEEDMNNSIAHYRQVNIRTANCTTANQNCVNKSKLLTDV
T2 sequence (P22001 whole entry): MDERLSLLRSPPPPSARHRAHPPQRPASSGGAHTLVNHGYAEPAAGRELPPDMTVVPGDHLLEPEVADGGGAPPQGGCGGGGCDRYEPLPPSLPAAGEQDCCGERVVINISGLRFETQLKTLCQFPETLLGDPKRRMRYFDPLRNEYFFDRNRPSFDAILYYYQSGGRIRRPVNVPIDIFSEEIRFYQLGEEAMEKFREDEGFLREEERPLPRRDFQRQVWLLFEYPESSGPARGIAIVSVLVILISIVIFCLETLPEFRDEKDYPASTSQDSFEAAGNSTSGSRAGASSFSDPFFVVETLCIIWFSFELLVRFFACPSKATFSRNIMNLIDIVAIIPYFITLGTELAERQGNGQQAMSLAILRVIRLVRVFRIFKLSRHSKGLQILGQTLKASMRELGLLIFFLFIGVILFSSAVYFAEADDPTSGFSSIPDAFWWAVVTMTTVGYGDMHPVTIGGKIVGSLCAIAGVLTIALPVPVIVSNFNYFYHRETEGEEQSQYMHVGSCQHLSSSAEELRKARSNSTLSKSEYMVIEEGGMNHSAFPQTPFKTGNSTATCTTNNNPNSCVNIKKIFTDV

The term Kd denotes the constant that tells how readily two partners part at equilibrium. As to `CC[C@H](C)[C@@H]1NC(=O)[C@@H]2CSSC[C@H](NC(=O)[C@H](C)NC(=O)[C@@H](NC(=O)[C@@H](N)CC(N)=O)C(C)C)C(=O)N[C@@H](C(C)C)C(=O)N[C@@H](Cc3c[nH]cn3)C(=O)N[C@@H](CCCNC(=N)N)C(=O)N[C@@H]([C@@H](C)O)C(=O)N[C@H]3CSSC[C@H](NC(=O)[C@H](CCCCN)NC(=O)[C@H](CCCNC(=N)N)NC(=O)[C@H](CC(N)=O)NC1=O)C(=O)N[C@@H](CC(N)=O)C(=O)N[C@H](C(=O)N[C@@H](Cc1ccc(O)cc1)C(=O)N1CCC[C@H]1C(=O)N[C@@H](Cc1c[nH]cn1)C(=O)O)CSSC[C@H](NC(=O)[C@H](CC(N)=O)NC(=O)[C@H](CO)NC(=O)[C@H](CC(=O)O)NC3=O)C(=O)N[C@@H](CCCCN)C(=O)N[C@@H](CCCNC(=N)N)C(=O)N[C@@H](CC(N)=O)C(=O)NCC(=O)N[C@@H](Cc1ccc(O)cc1)C(=O)N[C@@H](CCCCN)C(=O)N[C@@H](CO)C(=O)NCC(=O)N[C@@H](CCCCN)C(=O)N2` [CboK1] (H-NVACVHRTCDSNCKRNGYKSGKCINRKCNCYPH-OH; disulfide 4-23, 9-28, 13-30), the “effect on Kv1.1 currents” value at hKv1.1 (100 nM toxin) is given as “did not show any effect”. Also, the Kd on hKv1.1 (this study, screened at 100 nM, read-out: Kd Values Kv1.1 (symbol)) was greater than 100 nM; on Kv1.3 (this study, screened at 100 nM, read-out: Kd Values Kv1.3 (symbol)) it was greater than 100 nM; at hKv1.2 (this study, CboK1 tested at 100 nM, read-out: Kd Values Kv1.2 (symbol)), greater than 100 nM. Further, the “effect on Kv1.3 currents” value at Kv1.3 (100 nM toxin) is recorded as “did not show any effect”. Also, the “inhibition of Kv1.3 currents” value at Kv1.3 (100 nM toxin, equilibrium block, screening summary (Figure 4F), n ≥ 3) is on record as “less than 4%”. Further, on hKv1.2 (100 nM toxin), the “effect on Kv1.2 currents” value is on record as “totally insensitive; also recorded: did not show any effect”.
With `CC[C@H](C)[C@H](NC(=O)[C@@H](N)[C@@H](C)O)C(=O)N[C@H](C(=O)N[C@@H](CC(N)=O)C(=O)N[C@H](C(=O)N[C@@H](CCCCN)C(=O)N[C@H]1CSSC[C@@H]2NC(=O)[C@H](CCCCN)NC(=O)[C@H](CCC(=O)O)NC(=O)CNC(=O)[C@H](C)NC(=O)[C@H](Cc3c[nH]cn3)NC(=O)[C@@H]3CCCN3C(=O)CNC(=O)[C@H](Cc3ccc(O)cc3)NC(=O)[C@H](CC(C)C)NC(=O)[C@H](CC(=O)O)NC(=O)[C@H](CCCCN)NC(=O)[C@@H]3CSSC[C@@H](C(=O)N[C@@H](Cc4ccc(O)cc4)C(=O)N[C@@H](CCCCN)C(=O)N[C@H](C(=O)O)C(C)C)NC(=O)[C@H](CCCCN)NC(=O)[C@H](CSSC[C@H](NC(=O)[C@H](CCC(N)=O)NC(=O)[C@H](CCCCN)NC(=O)[C@@H]4CCCN4C(=O)[C@H](CO)NC(=O)[C@H]([C@@H](C)O)NC1=O)C(=O)N[C@@H](CC(C)C)C(=O)N[C@@H](CCCCN)C(=O)N1CCC[C@H]1C(=O)N3)NC(=O)[C@H](CCCCN)NC(=O)CNC(=O)[C@H](CC(N)=O)NC(=O)[C@H](CCSC)NC2=O)C(C)C)[C@@H](C)CC` [CboK3] (H-TIINVKCTSPKQCLKPCKDLYGPHAGEKCMNGKCKCYKV-OH; disulfide 7-29, 13-34, 17-36), at Kv1.3 (5, 15, 40, 100, 350 nM toxin), the “time for onset of steady-state block and complete recovery, Kv1.3” value was ~ 1 min. In addition, the “Hill coefficient H, Kv1.3 block” value on Kv1.3 (n ≥ 3) was 0.96. Besides, the “reversibility of Kv1.3 block” value at Kv1.3 (wash with toxin-free external solution) was “fully reversible”. The “Hill coefficient H, Kv1.2 block” value on hKv1.2 (setting [1]) turned out to be 1.2.
As to `CC[C@H](C)[C@H](NC(=O)[C@H](Cc1ccccc1)NC(=O)[C@@H](N)[C@@H](C)O)C(=O)N[C@@H](CC(N)=O)C(=O)N[C@H](C(=O)N[C@@H](CCCCN)C(=O)N[C@H]1CSSC[C@@H]2NC(=O)[C@H](CCCCN)NC(=O)[C@H](CCC(=O)O)NC(=O)CNC(=O)[C@H](C)NC(=O)[C@H](Cc3c[nH]cn3)NC(=O)[C@@H]3CCCN3C(=O)CNC(=O)[C@H](Cc3ccc(O)cc3)NC(=O)[C@H](CC(C)C)NC(=O)[C@H](CC(=O)O)NC(=O)[C@H](CCCCN)NC(=O)[C@@H]3CSSC[C@@H](C(=O)N[C@@H](Cc4ccc(O)cc4)C(=O)N[C@@H](CCCCN)C(=O)N4CCC[C@H]4C(=O)O)NC(=O)[C@H](CCCCN)NC(=O)[C@H](CSSC[C@H](NC(=O)[C@H](CCC(N)=O)NC(=O)[C@H](CCCCN)NC(=O)[C@@H]4CCCN4C(=O)[C@H](CO)NC(=O)[C@H]([C@@H](C)O)NC1=O)C(=O)N[C@@H](CC(C)C)C(=O)N[C@@H](CCCCN)C(=O)N1CCC[C@H]1C(=O)N3)NC(=O)[C@H](CCCCN)NC(=O)CNC(=O)[C@H](CC(N)=O)NC(=O)[C@H](CCSC)NC2=O)C(C)C` [CboK4] (H-TFINVKCTSPKQCLKPCKDLYGPHAGEKCMNGKCKCYKP-OH; disulfide 7-29, 13-34, 17-36 (inferred); N-terminus and C-terminus assumed), the “inhibition of Kv1.1 currents” value against hKv1.1 (100 nM toxin, equilibrium block, screening summary (Figure 4D), n ≥ 3) is recorded as “less than 10%”. Also, the “Hill coefficient H, Kv1.3 block” value at Kv1.3 (n ≥ 3) was found to be 0.94. Also, the Kd was determined as 21.7 nM on Kv1.3 (Hill fit of isochronal RCF (current at 4 ms), 15-ms pulses to +50 mV from -120 mV, n ≥ 3, read-out: Kd for Kv1.3) and 0.125 nM at hKv1.2 (Hill fit of RCF vs toxin concentration, cumulative application, equilibrium block, pulses to +50 mV from -120 mV, n ≥ 3, read-out: Kd for Kv1.2). For the same compound, the “Hill coefficient H, Kv1.2 block” value on hKv1.2 (setting [1]) was 1.0.
`CC[C@H](C)[C@H](NC(=O)[C@H](Cc1ccccc1)NC(=O)[C@@H](N)[C@@H](C)O)C(=O)N[C@@H](CC(N)=O)C(=O)N[C@H](C(=O)N[C@@H](CCCCN)C(=O)N[C@H]1CSSC[C@@H]2NC(=O)[C@H](CCCCN)NC(=O)[C@H](CCC(=O)O)NC(=O)CNC(=O)[C@H](C)NC(=O)[C@H](Cc3c[nH]cn3)NC(=O)[C@@H]3CCCN3C(=O)CNC(=O)[C@H](Cc3ccc(O)cc3)NC(=O)[C@H](CC(C)C)NC(=O)[C@H](CC(=O)O)NC(=O)[C@H](CCCCN)NC(=O)[C@@H]3CSSC[C@@H](C(=O)N[C@@H](Cc4ccc(O)cc4)C(=O)N[C@@H](CCCCN)C(=O)N[C@H](C(=O)O)C(C)C)NC(=O)[C@H](CCCCN)NC(=O)[C@H](CSSC[C@H](NC(=O)[C@H](CCC(N)=O)NC(=O)[C@H](CCCCN)NC(=O)[C@@H]4CCCN4C(=O)[C@H](CO)NC(=O)[C@H]([C@@H](C)O)NC1=O)C(=O)N[C@@H](CC(C)C)C(=O)N[C@@H](CCCCN)C(=O)N1CCC[C@H]1C(=O)N3)NC(=O)[C@H](CCCCN)NC(=O)CNC(=O)[C@H](CC(N)=O)NC(=O)[C@H](CCSC)NC2=O)C(C)C` [CboK7] (H-TFINVKCTSPKQCLKPCKDLYGPHAGEKCMNGKCKCYKV-OH; disulfide 7-29, 13-34, 17-36): the “Hill coefficient H, Kv1.3 block” value on Kv1.3 (n ≥ 3) was 0.8. For the same compound, the “Hill coefficient H, Kv1.2 block” value at hKv1.2 (setting [1]) was 1.3.
